Measurements reported in patent US4889906A, “Amine salts of 1,4,2-oxazaphospholidine-4-acetic acid, 2-alkoxy-2-oxides” (Monsanto Company, priority 1988, dated 1989).
“And” between values parts separate entries of the source, which are not always exact repeats. Equal entries are not always repeated. Structures can show the parent of a compound that is named as a salt.

Columns and labels:
Format in all cases: in vivo
[1] = tested on: plants; test: Biological activity, greenhouse tests according to Examples 3 and 4; conditions: according to the procedure of Examples 3 and 4
From the text: Top soil was placed in pans having holes in the bottom and compacted to a depth of 0.95 to 1.27 cm from the top of the pan. A predetermined number of seeds of each of several plant species or vegetative propagules for perennial plant species were placed on the soil and pressed into the soil surface. The seeds or propagules were covered with soil and leveled. The pans were then placed on a bench in the greenhouse and watered as needed for germination and growth. After the plants reached the desired age (2 to 3 weeks) each pan, except the control pans, was removed to a spraying chamber and sprayed by means of an atomizer. In the spray solution, an emulsifying agent was added to give a spray solution which contains about 0.4% by volume of the emulsifier. The spray solution contained a sufficient amount of the compound of Example 1 to give an application rate of the active ingredient of 2.8 g/m^2 (25 lbs. per acre) and 5.6 g/mz (50 lbs. per acre), while applying a total amount of solution equivalent to 187 ml/m^2 (200 gal per acre). […]
Established stands of fescue (Kentucky bluegrass No. 31) in pots having an area of about 100 cm (16 square inches) were trimmed to a uniform height. […] After two weeks, the height of the grass was measured. […]

[2] = tested on: fescue (Kentucky bluegrass No. 31); test: Plant growth regulating activity, greenhouse; conditions: 0.56 g/m^2 (5 lbs. per acre), two weeks
Method: Established stands of fescue (Kentucky bluegrass No. 31) in pots having an area of about 100 cm (16 square inches) were trimmed to a uniform height. Duplicate pots were removed to a spraying chamber and sprayed by means of an atomizer as in Example 3. The application rate of the active ingredient was 0.56 g/m^2 (5 lbs. per acre) while applying a total amount of solution equivalent to 187 ml/m^2 (200 gal/acre). The pots were returned to the greenhouse and watered with the controls on a daily basis. After two weeks, the height of the grass was measured.

[3] = tested on: Cocklebur; test: Post-emergent herbicide activity, greenhouse; conditions: 5.6 g/m^2
From the text: (§1) Top soil was placed in pans having holes in the bottom and compacted to a depth of 0.95 to 1.27 cm from the top of the pan. A predetermined number of seeds of each of several plant species or vegetative propagules for perennial plant species were placed on the soil and pressed into the soil surface. The seeds or propagules were covered with soil and leveled. The pans were then placed on a bench in the greenhouse and watered as needed for germination and growth. After the plants reached the desired age (2 to 3 weeks) each pan, except the control pans, was removed to a spraying chamber and sprayed by means of an atomizer. In the spray solution, an emulsifying agent was added to give a spray solution which contains about 0.4% by volume of the emulsifier. The spray solution contained a sufficient amount of the compound of Example 1 to give an application rate of the active ingredient of 2.8 g/m^2 (25 lbs. per acre) and 5.6 g/mz (50 lbs. per acre), while applying a total amount of solution equivalent to 187 ml/m^2 (200 gal per acre). The pans were returned to the greenhouse and watered as before, and the injury to the plants as compared to those in control pans was observed after 14 days after spraying, and again, 27 days after spraying.

[4] = tested on: Morningglory; test: Post-emergent herbicide activity, greenhouse; conditions: 5.6 g/m^2
From the text: as §1

[5] = tested on: Barnyardgrass; test: Post-emergent herbicide activity, greenhouse; conditions: 5.6 g/m^2
From the text: as §1

[6] = tested on: Rhizone Johnsongrass; test: Post-emergent herbicide activity, greenhouse; conditions: 5.6 g/m^2
From the text: as §1

[7] = tested on: Downy Brome; test: Post-emergent herbicide activity, greenhouse; conditions: 5.6 g/m^2
From the text: as §1

[8] = tested on: Quackgrass; test: Post-emergent herbicide activity, greenhouse; conditions: 5.6 g/m^2
From the text: as §1

[9] = tested on: Pennsylvania Smartweed; test: Post-emergent herbicide activity, greenhouse; conditions: 5.6 g/m^2
From the text: as §1

[10] = tested on: Velvetleaf; test: Post-emergent herbicide activity, greenhouse; conditions: 5.6 g/m^2
From the text: as §1

[11] = tested on: Common Lambsquarters; test: Post-emergent herbicide activity, greenhouse; conditions: 5.6 g/m^2
From the text: as §1

[12] = tested on: Canada Thistle; test: Post-emergent herbicide activity, greenhouse; conditions: 5.6 g/m^2
From the text: as §1

[13] = tested on: Yellow Nutsedge; test: Post-emergent herbicide activity, greenhouse; conditions: 5.6 g/m^2
From the text: as §1

Compound: COP1(=O)CN(CC(=O)O)CO1 (stereo not drawn) [Example 2, 1,4,2-oxazaphospholidine-4-acetic acid, 2-alkoxy-2-oxide]
- biological activity (post-emergent herbicide and plant growth regulating), in words [1]: Satisfactory results are achieved

Compound: COP1(=O)CN(CC(=O)O)CO1 (stereo not drawn) [Example 1, triethylamine salt of 1,4,2-oxazaphospholidine-4-acetic acid, 2-methoxy-2-oxide]
- average growth rate of treated fescue relative to controls [2]: 43 % of the controls
- growth of treated grass over two-week period ([2]; duplicate pots, control pots grew average 199.58 mm): 80 mm and 90 mm
- discoloration or other sign of phytotoxicity ([2]; fescue): did not show any discoloration or other sign of phytotoxicity
- Plant Response After 14 Days ([3]; 14 days after spraying): 1 (25-49% inhibition)
- Plant Response After 27 Days ([3]; 27 days after spraying): 1 (25-49% inhibition)
- Plant Response After 14 Days ([4]; 14 days after spraying): 1 (25-49% inhibition)
- Plant Response After 27 Days ([4]; 27 days after spraying): 1 (25-49% inhibition)
- Plant Response After 14 Days ([5]; 14 days after spraying): 1 (25-49% inhibition)
- Plant Response After 27 Days ([5]; 27 days after spraying): 1 (25-49% inhibition)
- Plant Response After 14 Days ([6]; 14 days after spraying): 0 (0-24% inhibition)
- Plant Response After 27 Days ([6]; 27 days after spraying): 0 (0-24% inhibition)
- Plant Response After 14 Days ([7]; 14 days after spraying): 0 (0-24% inhibition)
- Plant Response After 27 Days ([7]; 27 days after spraying): 0 (0-24% inhibition)
- Plant Response After 14 Days ([8]; 14 days after spraying): 0 (0-24% inhibition)
- Plant Response After 27 Days ([8]; 27 days after spraying): 1 (25-49% inhibition)
- Plant Response After 14 Days ([9]; 14 days after spraying): 0 (0-24% inhibition)
- Plant Response After 27 Days ([9]; 27 days after spraying): 0 (0-24% inhibition)
- Plant Response After 14 Days ([10]; 14 days after spraying): 0 (0-24% inhibition)
- Plant Response After 27 Days ([10]; 27 days after spraying): 0 (0-24% inhibition)
- Plant Response After 14 Days ([11]; 14 days after spraying): 0 (0-24% inhibition)
- Plant Response After 27 Days ([11]; 27 days after spraying): 0 (0-24% inhibition)
- Plant Response After 14 Days ([12]; 14 days after spraying): 0 (0-24% inhibition)
- Plant Response After 27 Days ([12]; 27 days after spraying): 0 (0-24% inhibition)
- Plant Response After 14 Days ([13]; 14 days after spraying): 0 (0-24% inhibition)
- Plant Response After 27 Days ([13]; 27 days after spraying): 1 (25-49% inhibition)

Compound: COP1(=O)CN(CC(=O)O)CO1 (stereo not drawn) [Example 5, Triisopropylamine Salt of 1,4,2-Oxazaphospholidine-4-Acetic Acid, 2-Methoxy-2-Oxide]
- biological activity (post-emergent herbicide and plant growth regulating), in words [1]: Satisfactory results are achieved
